Results as given in patent US20100028447A1, “Intranasal, Buccal, And Sublingual Administration Of Metanicotine Analogs” (TARGACEPT, INC., priority 2007, published 2010).
Several values for one entry are separate records, joined by “and”; a condition that tells them apart may be missing. Equal values may be shown once. Read-outs that look alike come from different tables or passages of the source.

Experiment: Brain-to-plasma ratio of Compound C after oral gavage or intranasal administration (Example 5)
Format: in vivo, Sprague-Dawley rats
Details: for concentration at 10 min / concentration at 30 min / concentration at 60 min / Kp at […] / Kp at 0.5 h / Kp at 1 h: Sprague-Dawley
Procedure: Three treatment groups of nine rats each were used (see Study Design, Table 9). […] The animals were housed up to three per cage and identified by cage labels. A single room was used for this study. […] Food was withheld from the animals for a minimum of 12 hours before the study and during the study, and was returned at 4 hours post-dose. Water was supplied ad libitum during the study.
All dosing solutions were prepared in isotonic PBS (phosphate buffered saline) buffer at pH 7.4. […] For intranasal dosing, the animals were anesthetized with CO2 prior to dosing, and the solution was administered in a 25 μL droplet from a pipette.
For each treatment group, brain and plasma samples were collected at 10, 30 and 60 minutes post-dose. Blood samples were placed in heparinized tubles and spun at 13,000 rpm for 5 minutes. The plasma was placed in polyethylene tubes and frozen (−60 to −80° C.). Brain samples were also placed in chilled tubes and frozen (−60 to −80° C.). Samples remained chilled during subsequent processing.
Brain samples were thawed and weighed. […] After homogenation, the volume of each sample was recorded and the samples were frozen at −80° C. until analysis.
Plastic tubes were used for all steps. Standards were prepared at concentrations of 1000, 500, 250, 100, 50, 10, 5, and 1 ng/mL by serial dilution. Quality control samples were also prepared at 500, 100, and 5 ng/mL. […] Brain standards and quality control samples were treated identically to the test compound samples.
Brain samples (200 μL) were loaded onto a 96 well plate and then transferred to 400 μL of acetonitrile containing internal standard (100 ng/mL Pindolol) in a Sirocco Protein Precipitation Plate (Waters Corporation). The resulting suspensions were mixed, then filtered into a clean 96-well collection plate using a vacuum and transferred (100 μL) to plastic HPLC vials for analysis.
Brain samples (50 μL) were loaded onto a 96 well plate and then transferred to 150 μL of acetonitrile containing internal standard (100 ng/mL Pindolol) in a Sirocco Protein Precipitation Plate (Waters Corporation). The resulting suspensions were mixed, then filtered into a clean 96-well collection plate using a vacuum and transferred (100 μL) to plastic HPLC vials for analysis.

[1] = 1 mg/kg intranasal dose, 10 min
[2] = 1 mg/kg intranasal dose, 30 min
[3] = 1 mg/kg intranasal dose, 60 min
[4] = 5 mg/kg intranasal dose, 10 min
[5] = 5 mg/kg intranasal dose, 60 min

CN[C@@H](C)C/C=C/c1cncc(OC(C)C)c1 [Compound C, (2S)-(4E)-N-methyl-5-(3-(5-isopropoxypyridin)yl)-4-penten-2-amine]
Brain-to-Plasma Ratio [1]: 1.55 and 1.68 | Mean Ratio (brain-to-plasma) [1]: 1.97 | Brain-to-Plasma Ratio [2]: 1.69 and 2.36 | Mean Ratio (brain-to-plasma) [2]: 2.27 | Plasma Conc. [2]: 118 ng/mL and 86.8 ng/mL | Brain-to-Plasma Ratio [3]: 1.86 and 2.57 | Mean Ratio (brain-to-plasma) [3]: 2.12 | Plasma Conc. [3]: 66 ng/mL and 37.8 ng/mL | Brain-to-Plasma Ratio [4]: 0.99 | Plasma Conc. [4]: 1570 ng/mL and 1700 ng/mL | Brain-to-Plasma Ratio (5 mg/kg intranasal dose, 30 min): 3.58 and 2.11 | Brain-to-Plasma Ratio [5]: 3.26 and 1.95 | Mean Ratio (brain-to-plasma) [5]: 2.41 | Plasma Conc. [5]: 175 ng/mL and 119 ng/mL | Brain-to-Plasma Ratio (5 mg/kg oral dose, 30 min): 2.65 and 1.67 | Mean Ratio (brain-to-plasma) (5 mg/kg oral dose, 30 min): 2.21 | Brain-to-Plasma Ratio (5 mg/kg oral dose, 60 min): 3.95 | Mean Ratio (brain-to-plasma) (5 mg/kg oral dose, 60 min): 3.55 | 5 mg/kg IN/5 mg/kg PO, Brain (30 min): 1.0 | 5 mg/kg IN/5 mg/kg PO, Plasma (30 min): 0.7 | 5 mg/kg IN/5 mg/kg PO, Brain (60 min): 0.7 | 5 mg/kg IN/5 mg/kg PO, Plasma (60 min): 1.0 | concentration at 10 min (rat, brain homogenate, oral, 5 mg/kg, 5 mg/kg oral dose, 10 min, read-out: Brain Conc.): 45.4 ng/mL | concentration at 30 min (rat, brain homogenate, oral, 5 mg/kg, 5 mg/kg oral dose, 30 min, read-out: Brain Conc.): 205 ng/mL | concentration at 10 min (rat, brain homogenate, other: intranasal, 1 mg/kg, 1 mg/kg intranasal dose, 10 min, read-out: Brain Conc.): 47.6 ng/mL | concentration at 30 min (rat, brain homogenate, other: intranasal, 1 mg/kg, 1 mg/kg intranasal dose, 30 min, read-out: Brain Conc.): 43.7 ng/mL | concentration at 60 min (rat, brain homogenate, other: intranasal, 1 mg/kg, 1 mg/kg intranasal dose, 60 min, read-out: Brain Conc.): 17.7 ng/mL | concentration at 10 min (rat, brain homogenate, other: intranasal, 5 mg/kg, 5 mg/kg intranasal dose, 10 min, read-out: Brain Conc.): 269 ng/mL | Kp at […] (rat, brain, inhaled or intranasal, 1 mg/kg, 1 mg/kg intranasal dose, 10 min, read-out: Mean Ratio (brain-to-plasma)): 2 | Kp at 0.5 h (rat, brain, inhaled or intranasal, 1 mg/kg, 1 mg/kg intranasal dose, 30 min, read-out: Mean Ratio (brain-to-plasma)): 2.8 | Kp at 1 h (rat, brain, inhaled or intranasal, 1 mg/kg, 1 mg/kg intranasal dose, 60 min, read-out: Mean Ratio (brain-to-plasma)): 2.4 | Kp at […] (rat, brain, inhaled or intranasal, 5 mg/kg, 5 mg/kg intranasal dose, 10 min, read-out: Mean Ratio (brain-to-plasma)): 1.2 | Kp at 0.5 h (rat, brain, inhaled or intranasal, 5 mg/kg, 5 mg/kg intranasal dose, 30 min, read-out: Mean Ratio (brain-to-plasma)): 2.8 | Kp at 1 h (rat, brain, inhaled or intranasal, 5 mg/kg, 5 mg/kg intranasal dose, 60 min, read-out: Mean Ratio (brain-to-plasma)): 2.4 | concentration at 10 min (rat, brain, oral, 5 mg/kg, 5 mg/kg oral dose, 10 min, read-out: Brain Conc.): 227 ng/g | concentration at 30 min (rat, brain, oral, 5 mg/kg, 5 mg/kg oral dose, 30 min, read-out: Brain Conc.): 1020 ng/g | concentration at 10 min (rat, brain, other: intranasal, 1 mg/kg, 1 mg/kg intranasal dose, 10 min, read-out: Brain Conc.): 238 ng/g | concentration at 30 min (rat, brain, other: intranasal, 1 mg/kg, 1 mg/kg intranasal dose, 30 min, read-out: Brain Conc.): 219 ng/g | concentration at 60 min (rat, brain, other: intranasal, 1 mg/kg, 1 mg/kg intranasal dose, 60 min, read-out: Brain Conc.): 89 ng/g | concentration at 10 min (rat, brain, other: intranasal, 1 mg/kg, intranasal 1 mg/kg, 10 minutes, read-out: Average brain levels): 136 ng/g | concentration at 30 min (rat, brain, other: intranasal, 1 mg/kg, intranasal 1 mg/kg, 30 minutes, read-out: Average brain levels): 95 ng/g | concentration at 60 min (rat, brain, other: intranasal, 1 mg/kg, intranasal 1 mg/kg, 60 minutes, read-out: Average brain levels): 50 ng/g | concentration at 10 min (rat, brain, other: intranasal, 5 mg/kg, 5 mg/kg intranasal dose, 10 min, read-out: Brain Conc.): 1340 ng/g | concentration at 10 min (rat, brain, other: intranasal, 5 mg/kg, intranasal 5 mg/kg, 10 minutes, read-out: Average brain levels): 1750 ng/g | concentration at 30 min (rat, brain, other: intranasal, 5 mg/kg, intranasal 5 mg/kg, 30 minutes, read-out: Average brain levels): 1160 ng/g | concentration at 60 min (rat, brain, other: intranasal, 5 mg/kg, intranasal 5 mg/kg, 60 minutes, read-out: Average brain levels): 382 ng/g | concentration at 10 min (rat, brain, po, 5 mg/kg, oral gavage 5 mg/kg, 10 minutes, read-out: Average brain levels): 225 ng/g | concentration at 30 min (rat, brain, po, 5 mg/kg, oral gavage 5 mg/kg, 30 minutes, read-out: Average brain levels): 1170 ng/g | concentration at 60 min (rat, brain, po, 5 mg/kg, oral gavage 5 mg/kg, 60 minutes, read-out: Average brain levels): 571 ng/g | Kp at […] (rat, brain/plasma, inhaled or intranasal, 1 mg/kg, 1 mg/kg intranasal dose, 10 min, read-out: Brain-to-Plasma Ratio): 2.7 | Kp at 0.5 h (rat, brain/plasma, inhaled or intranasal, 1 mg/kg, 1 mg/kg intranasal dose, 30 min, read-out: Brain-to-Plasma Ratio): 2.78 | Kp at 1 h (rat, brain/plasma, inhaled or intranasal, 1 mg/kg, 1 mg/kg intranasal dose, 60 min, read-out: Brain-to-Plasma Ratio): 1.92 | Kp at […] (rat, brain/plasma, inhaled or intranasal, 5 mg/kg, 5 mg/kg intranasal dose, 10 min, read-out: Brain-to-Plasma Ratio): 1.42 | Kp at 0.5 h (rat, brain/plasma, inhaled or intranasal, 5 mg/kg, 5 mg/kg intranasal dose, 30 min, read-out: Brain-to-Plasma Ratio): 2.63 | Kp at 1 h (rat, brain/plasma, inhaled or intranasal, 5 mg/kg, 5 mg/kg intranasal dose, 60 min, read-out: Brain-to-Plasma Ratio): 2.03 | Kp at […] (rat, brain/plasma, po, 5 mg/kg, 5 mg/kg oral dose, 10 min, read-out: Mean Ratio (brain-to-plasma)): 0.8 | Kp at 0.5 h (rat, brain/plasma, po, 5 mg/kg, 5 mg/kg oral dose, 30 min, read-out: Brain-to-Plasma Ratio): 2.31 | Kp at 0.5 h (rat, brain/plasma, po, 5 mg/kg, 5 mg/kg oral dose, 30 min, read-out: Mean Ratio (brain-to-plasma)): 2.2 | Kp at 1 h (rat, brain/plasma, po, 5 mg/kg, 5 mg/kg oral dose, 60 min, read-out: Brain-to-Plasma Ratio): 3.89 | Kp at 1 h (rat, brain/plasma, po, 5 mg/kg, 5 mg/kg oral dose, 60 min, read-out: Mean Ratio (brain-to-plasma)): 3.5 | Kp at […] (rat, brain/plasma, po, 5 mg/kg, 10 min, read-out: 5 mg/kg IN/5 mg/kg PO, Ratio (brain to plasma)): 1.5 | Kp at 0.5 h (rat, brain/plasma, po, 5 mg/kg, 30 min, read-out: 5 mg/kg IN/5 mg/kg PO, Ratio (brain to plasma)): 1.3 | Kp at 1 h (rat, brain/plasma, po, 5 mg/kg, 60 min, read-out: 5 mg/kg IN/5 mg/kg PO, Ratio (brain to plasma)): 0.7 | concentration at 30 min (rat, plasma, other: intranasal, 1 mg/kg, 1 mg/kg intranasal dose, 30 min, read-out: Plasma Conc.): 78.7 ng/mL | concentration at 60 min (rat, plasma, other: intranasal, 1 mg/kg, 1 mg/kg intranasal dose, 60 min, read-out: Plasma Conc.): 46 ng/mL | concentration at 10 min (rat, plasma, other: intranasal, 1 mg/kg, intranasal 1 mg/kg, 10 minutes, read-out: Average plasma levels): 250 ng/mL | concentration at 30 min (rat, plasma, other: intranasal, 1 mg/kg, intranasal 1 mg/kg, 30 minutes, read-out: Average plasma levels): 208 ng/mL | concentration at 60 min (rat, plasma, other: intranasal, 1 mg/kg, intranasal 1 mg/kg, 60 minutes, read-out: Average plasma levels): 103 ng/mL | concentration at 10 min (rat, plasma, other: intranasal, 5 mg/kg, 5 mg/kg intranasal dose, 10 min, read-out: Plasma Conc.): 1120 ng/mL | concentration at 60 min (rat, plasma, other: intranasal, 5 mg/kg, 5 mg/kg intranasal dose, 60 min, read-out: Plasma Conc.): 170 ng/mL | concentration at 10 min (rat, plasma, other: intranasal, 5 mg/kg, intranasal 5 mg/kg, 10 minutes, read-out: Average plasma levels): 1460 ng/mL | concentration at 30 min (rat, plasma, other: intranasal, 5 mg/kg, intranasal 5 mg/kg, 30 minutes, read-out: Average plasma levels): 421 ng/mL | concentration at 60 min (rat, plasma, other: intranasal, 5 mg/kg, intranasal 5 mg/kg, 60 minutes, read-out: Average plasma levels): 155 ng/mL | concentration at 10 min (rat, plasma, po, 5 mg/kg, oral gavage 5 mg/kg, 10 minutes, read-out: Average plasma levels): 312 ng/mL | concentration at 30 min (rat, plasma, po, 5 mg/kg, oral gavage 5 mg/kg, 30 minutes, read-out: Average plasma levels): 578 ng/mL | concentration at 60 min (rat, plasma, po, 5 mg/kg, oral gavage 5 mg/kg, 60 minutes, read-out: Average plasma levels): 155 ng/mL | Intranasal absorption into the brain and bloodstream compared with oral administration (rat, in vivo, po): much faster
